In publication PMC6976638, “Screening of natural compounds that targets glutamate racemase of Mycobacterium tuberculosis reveals the anti-tubercular potential of flavonoids” (Scientific Reports, 2020):

Legend:
[1] = target: Glutamate racemase (MTB-MurI) (Mycobacterium tuberculosis, UniProt P9WPW9); experiment: GDH-coupled racemization assay (A340), Lineweaver-Burk and Dixon plots; […]; assay type: biochemical
[2] = tested on: N[C@H](CCC(=O)O)C(=O)O; experiment: purified protein; conditions: substrate binding site; Cys75 and Cys185 catalytic residues

Sequence of Glutamate racemase (MTB-MurI) (P9WPW9 whole entry, looked up): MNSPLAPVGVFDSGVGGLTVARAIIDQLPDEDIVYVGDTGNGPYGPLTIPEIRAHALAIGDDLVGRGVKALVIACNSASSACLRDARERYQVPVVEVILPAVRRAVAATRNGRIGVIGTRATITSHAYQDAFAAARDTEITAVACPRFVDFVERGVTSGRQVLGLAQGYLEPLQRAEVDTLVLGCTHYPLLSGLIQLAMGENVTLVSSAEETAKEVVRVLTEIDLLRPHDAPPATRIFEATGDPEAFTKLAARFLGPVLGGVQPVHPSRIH

Compound	Ki [1]	Km [2]
O=C1C[C@@H](c2ccc(O)cc2)Oc2cc(O)cc(O)c21 [naringenin]	23.8 µM	
Glutamate racemase (MTB-MurI) (Mycobacterium tuberculosis H37Rv)		499 µM
O=c1c(O)c(-c2ccc(O)c(O)c2)oc2cc(O)cc(O)c12 [quercetin]	20.8 µM	
